Measured values from US20240390284A1, “IONIZABLE LIPIDS” (BRISTOL-MYERS SQUIBB COMPANY, priority 2023, published 2024).

Key:
[1] = test system: HEK293 FT cells; experiment: Cas9 mRNA/sgRNA LNP gene editing, amplicon sequencing indel percentage (CRISPR-DAV); type: cell-based; conditions: LNP formulation dosed at 20 uL into 5,000 HEK293 FT cells, four day incubation
Description: (§1) Lipid nanoparticles (LNPs) were generated by rapid mixing. A mixture containing ionizable lipid, DSPC, cholesterol, and DMG-PEG at a molar ratio of 45:10:44:1, respectively, in ethanol was mixed with an aqueous sample containing Cas9 mRNA and synthetic sgRNA in 100 mM sodium acetate. Molar fractions were maintained for each formulation while varying the ionizable lipid. After formulation, particles immediately neutralized by dilution into Phosphate Buffered Saline (PBS). LNP size was determined using a Wyatt Plate Reader III with default settings.
(§2) Particles were functionally tested using amplicon sequencing. For testing, each formulation was dosed at 20 uL into 5,000 HEK293 FT or Jurkat cells. After a four day incubation cells were lysed and the locus of interested was amplified with PCR primers. These PCR products are then prepared for sequencing and sequenced on a MiSeq. The sequencing data is then processed and analyzed using CRISPR-DAV, which outputs indel percentages. (Table 1) For general reference, see Xuning Wang, Charles Tilford, Isaac Neuhaus, Gabe Mintier, Qi Guo, John N Feder, Stefan Kirov, CRISPR-DAV: CRISPR NGS data analysis and visualization pipeline, Bioinformatics, Volume 33, Issue 23, December 012017, Pages 3811-3812.

[2] = test system: Jurkat cells; experiment: as above; type: cell-based; conditions: LNP formulation dosed at 20 uL into 5,000 Jurkat cells, four day incubation
Description: as §1, §2

[3] = LNP size (average radius), Wyatt Plate Reader III; type: physicochemical; conditions: LNP of ionizable lipid:DSPC:cholesterol:DMG-PEG 45:10:44:1 with Cas9 mRNA and sgRNA, 0.087 mg/ml each
Description: as §1

| Structure (SMILES) | Indel % rep1 HEK293 FT [1] [%] | Indel % rep2 Hek [1] [%] | Indel % rep1 Jurkat [2] [%] | Indel % rep2 Jurkat [2] [%] | average Radius (nm) rep1 [3] [nm] | average Radius (nm) rep2 [3] [nm] |
| --- | --- | --- | --- | --- | --- | --- |
| CCCCC/C=C\C/C=C\CCCCCCCC1OC(CCN(C)C)OC1CCCCCCCCCCCCCCCCC (stereo not drawn) [Lipid 4, (2-{4-[(8Z,11Z)-heptadeca-8,11-dien-1-yl]-5-heptadecyl-1,3-dioxolan-2-yl}ethyl)dimethylamine] | 53.08 | 62.46 | 34.09 | 19.69 | 153.05 | 150.55 |
| CCCCC/C=C\C/C=C\CCCCCC1OC(CCN(C)C)OC1CCCCC/C=C\C/C=C\CCCCC (stereo not drawn) [Lipid 6, (2-{4,5-Bis [(6Z,9Z)-pentadeca-6,9-dien-1-yl]-1,3-dioxolan-2-yl}ethyl)dimethylamine] | 30.63 | 8.87 | 13.16 | 18.09 | 98.825 | 91.175 |
| CCCCCCCC/C=C\CCCCCCCC1OC(CCN(C)C)OC1CCCCCCC/C=C\CCCCCCCC (stereo not drawn) [Lipid 3, (2-{4,5-Bis [(8Z)-heptadec-8-en-1-yl]-1,3-dioxolan-2-yl}ethyl)dimethylamine] | 92.23 | 90.92 | 77.31 | 66.37 | 92.55 | 91.525 |
| CCCCCCCC/C=C\CCCCCCCC1OC(CCN(C)C)OC1CCCCCCCCCCCCCCCCC (stereo not drawn) [Lipid 8, (2-{4-[(8Z)-Heptadec-8-en-1-yl]-5-heptadecyl-1,3-dioxolan-2-yl}ethyl)dimethylamine] | 67.32 | 74.04 | 2.26 | 0.37 | 135.075 | 146.35 |
| CCCCCCCC/C=C/CCCCCCCC1OC(CCN(C)C)OC1CCCCCCCCCCCCCCCCC (stereo not drawn) [Lipid 7, (2-{4-[(8E)-heptadec-8-en-1-yl]-5-heptadecyl-1,3-dioxolan-2-yl}ethyl)dimethylamine] | 2.58 | 2.29 | 0.06 | 0.02 | 116 | 124.85 |
| CCCCC/C=C/C/C=C/CCCCCCCC1OC(CCN(C)C)OC1CCCCCCC/C=C/C/C=C/CCCCC (stereo not drawn) [Lipid 9, (2-{4,5-Bis [(8E,11E)-heptadeca-8,11-dien-1-yl]-1,3-dioxolan-2-yl}ethyl)dimethylamine] | 84.41 | 66.39 | 15.29 | 10 | 105 | 101.525 |
| CCCCCC=CCC=CCCCCCCCC1OC(CCN(C)C)OC1CCCCCCCCCCCCCCCCC (stereo in doubt) [Lipid 10, (2-{4-[(8Z,11Z)-heptadeca-8,11-dien-1-yl]-5-heptadecyl-1,3-dioxolan-2-yl}ethyl)dimethylamine] | 51.22 | 63.9 | 1.75 | 1.04 | 177.3 | 129.475 |
| CCCCCCCC/C=C/CCCCCCCC1OC(CCN(C)C)OC1CCCCCCC/C=C/CCCCCCCC (stereo not drawn) [Lipid 2, (2-{4,5-Bis [(8E)-heptadec-8-en-1-yl]-1,3-dioxolan-2-yl}ethyl)dimethylamine] | 16.5 | 41.5 | 0.15 | 0.09 | 142.825 | 136.875 |
| CCCCC/C=C\C/C=C\CCCC1OC(CCN(C)C)OC1CCC/C=C\C/C=C\CCCCC (stereo not drawn) [Lipid 5, {2-[4,5-Bis-((4Z,7Z)-trideca-4,7-dienyl)-[1,3]dioxolan-2-yl]-ethyl}-dimethyl-amine] | 0.09 | 0.12 | 0.11 | 0.1 | 94.25 | 90.275 |
| CCCCC/C=C\C/C=C\CCCCCCCC1OC(CCCN(C)C)OC1CCCCCCC/C=C\C/C=C\CCCCC (stereo not drawn) [Lipid 11] | 93.59 | 95.87 | 70.3 | 65.07 | 122.675 | 109.475 |
